From publication PMC6522510 (Nature Communications, 2019)

How the values were obtained:
ML-2 [1] = assay: cells; set-up: species or system AML cell lines (8); Secondary HTS, 10-point dose-response in triplicate, Cell Titer Glo viability, four-parameter fit EC50; settings: Homo sapiens, ML-2, 72 h, read-out: ML-2
MV4-11 [2] = assay: cells; set-up: species or system AML cell lines (8); Secondary HTS, 10-point dose-response in triplicate, Cell Titer Glo viability, four-parameter fit EC50; settings: Homo sapiens, MV4-11, 72 h, read-out: MV4-11
M07e [3] = assay: cells; set-up: species or system AML cell lines (8); Secondary HTS, 10-point dose-response in triplicate, Cell Titer Glo viability, four-parameter fit EC50; settings: M-07e, 72 h, read-out: M07e
U937 [4] = assay: cells; set-up: species or system AML cell lines (8); Secondary HTS, 10-point dose-response in triplicate, Cell Titer Glo viability, four-parameter fit EC50; settings: Homo sapiens, U-937, 72 h, read-out: U937
CHRF288-11 [5] = assay: cells; set-up: species or system AML cell lines (8); Secondary HTS, 10-point dose-response in triplicate, Cell Titer Glo viability, four-parameter fit EC50; settings: 72 h, read-out: CHRF288-11
MOLM-13 [6] = assay: cells; set-up: species or system AML cell lines (8); Secondary HTS, 10-point dose-response in triplicate, Cell Titer Glo viability, four-parameter fit EC50; settings: Homo sapiens, MOLM-13, 72 h, read-out: MOLM-13
CMK [7] = assay: Secondary dose-response HTS, Cell Titer Glo; format: cell-based, human; settings: Homo sapiens, CMK, read-out: average effective concentration, CMK
CMS [8] = assay: Secondary dose-response HTS, Cell Titer Glo; format: cell-based, human; settings: Homo sapiens, HTS, read-out: average effective concentration, CMS
CMK [9] = assay: cells; set-up: species or system AML cell lines (8); Secondary HTS, 10-point dose-response in triplicate, Cell Titer Glo viability, four-parameter fit EC50; settings: Homo sapiens, CMK, 72 h, read-out: CMK
MV4-11 [10] = assay: Secondary dose-response HTS, Cell Titer Glo; format: cell-based, human; settings: Homo sapiens; secondary high-throughput screen; MV4-11; read-out: average effective concentration, MV4-11
CMS [11] = assay: cells; set-up: species or system AML cell lines (8); Secondary HTS, 10-point dose-response in triplicate, Cell Titer Glo viability, four-parameter fit EC50; settings: 72 h, read-out: CMS
U937 [12] = system: U937; set-up: species or system AML cell lines (8); Primary HTS, single concentration about 10 uM, Cell Titer Glo viability; log10 luminescence, per cent inhibition relative to cycloheximide control; settings: 72 h, relative to cycloheximide control, log10 luminescence; inhibitor
CHRF288-11 [13] = system: CHRF288-11; set-up: species or system AML cell lines (8); Primary HTS, single concentration about 10 uM, Cell Titer Glo viability; log10 luminescence, per cent inhibition relative to cycloheximide control; settings: 72 h, relative to cycloheximide control, log10 luminescence; inhibitor
CMK [14] = system: CMK; set-up: species or system AML cell lines (8); Primary HTS, single concentration about 10 uM, Cell Titer Glo viability; log10 luminescence, per cent inhibition relative to cycloheximide control; settings: 72 h, relative to cycloheximide control, log10 luminescence; inhibitor
MV4-11 [15] = system: MV4-11; set-up: species or system AML cell lines (8); Primary HTS, single concentration about 10 uM, Cell Titer Glo viability; log10 luminescence, per cent inhibition relative to cycloheximide control; settings: 72 h, relative to cycloheximide control, log10 luminescence; inhibitor
M07e [16] = system: M07e; set-up: species or system AML cell lines (8); Primary HTS, single concentration about 10 uM, Cell Titer Glo viability; log10 luminescence, per cent inhibition relative to cycloheximide control; settings: 72 h, relative to cycloheximide control, log10 luminescence; inhibitor
MOLM-13 [17] = system: MOLM-13; set-up: species or system AML cell lines (8); Primary HTS, single concentration about 10 uM, Cell Titer Glo viability; log10 luminescence, per cent inhibition relative to cycloheximide control; settings: 72 h, relative to cycloheximide control, log10 luminescence; inhibitor
CMS [18] = system: CMS; set-up: species or system AML cell lines (8); Primary HTS, single concentration about 10 uM, Cell Titer Glo viability; log10 luminescence, per cent inhibition relative to cycloheximide control; settings: 72 h, relative to cycloheximide control, log10 luminescence; inhibitor
ML-2 [19] = system: ML-2; set-up: species or system AML cell lines (8); Primary HTS, single concentration about 10 uM, Cell Titer Glo viability; log10 luminescence, per cent inhibition relative to cycloheximide control; settings: 72 h, relative to cycloheximide control, log10 luminescence; inhibitor
M07e [20] = assay: Secondary dose-response HTS, Cell Titer Glo; format: cell-based, human; settings: Homo sapiens, M-07e; secondary high-throughput screen; M07e; read-out: average effective concentration, M07e
MOLM-13 [21] = assay: Secondary dose-response HTS, Cell Titer Glo; format: cell-based, human; settings: Homo sapiens; secondary high-throughput screen; MOLM-13; read-out: average effective concentration, MOLM-13
U937 [22] = assay: Secondary dose-response HTS, Cell Titer Glo; format: cell-based, human; settings: Homo sapiens, U-937; secondary high-throughput screen; U937; read-out: average effective concentration, U937
[23] = secondary high-throughput screen, CMS

SMILES	EC50 (ML-2 [1]) [µM]	EC50 (MV4-11 [2]) [µM]	EC50 (M07e [3]) [µM]	EC50 (U937 [4]) [µM]	EC50 (CHRF288-11 [5]) [µM]	EC50 (MOLM-13 [6]) [µM]	EC50 (CMK [9]) [µM]	EC50 (MV4-11 [10]) [µM]	EC50 (CMS [11]) [µM]	further results
Cc1cc(Nc2nc(N[C@@H](C)c3ncc(F)cn3)ncc2Cl)n[nH]1 [AZD1480]	> 10	> 10	> 10	> 10	> 10	> 10				EC50 (CMK [7]; secondary high-throughput screen): > 10 µM; EC50 (CMS [8]; [23]): 3.3 µM
NC(=O)[C@@H](CCC(F)(F)F)N(Cc1ccc(-c2ncon2)cc1F)S(=O)(=O)c1ccc(Cl)cc1 [BMS-708163]	> 10		> 10	> 10	> 10	> 10	> 10	> 10	> 10	
O=c1[nH]cc(F)c(=O)[nH]1 [Compound 5-FLUOROURACIL]	> 10		> 10	> 10	> 10	> 10	> 10	> 10	> 10	
Cc1cc(Nc2cc(N3CCN(C)CC3)nc(/C=C/c3ccccc3)n2)n[nH]1 [ENMD-2076]	> 10	0.125	> 10	> 10	> 10	0.0955				EC50 (CMK [7]): 0.11 µM; EC50 (CMS [8]): 3.2 µM
C[C@]1(O)C[C@@H](c2nc(-c3ccc4ccc(-c5ccccc5)nc4c3)c3c(N)nccn32)C1 [LINSITINIB]	> 10		> 10	> 10	> 10	> 10	> 10	> 10	> 10	U937 %inh (U937 [12]): 2.082%; CHRF288-11 %inh (CHRF288-11 [13]): 34.61%; CMK %inh (CMK [14]): 18.57%; MV4-11 %inh (MV4-11 [15]): 7.816%; M07e %inh (M07e [16]): 2.638%; MOLM-13 %inh (MOLM-13 [17]): 2.501%; CMS %inh (CMS [18]): 2.626%; ML-2 %inh (ML-2 [19]): 11.6%
Cc1ccc(C(=O)Nc2ccc(Oc3cc4cnn(C)c4cc3-c3cn[nH]c3)c(F)c2)c(=O)n1-c1ccc(F)cc1 [Merestinib]	> 10	> 10		> 10	> 10	0.0058	> 10		> 10	EC50 (M07e [20]): 0.025 µM
CO[C@H]1C[C@@H]2CC[C@@H](C)[C@@](O)(O2)C(=O)C(=O)N2CCCC[C@H]2C(=O)O[C@H]([C@H](C)C[C@@H]2CC[C@@H](O)[C@H](OC)C2)CC(=O)[C@H](C)/C=C(\C)[C@@H](O)[C@@H](OC)C(=O)[C@H](C)C[C@H](C)/C=C/C=C/C=C/1C [SIROLIMUS]	> 10		> 10		> 10		> 10	0.001		EC50 (MOLM-13 [21]): > 10 µM; EC50 (U937 [22]): 0.001 µM; EC50 (CMS [8]; [23]): > 10 µM
COc1cc(C(=O)NC2CCN(C)CC2)c(F)cc1Nc1ncc2c(n1)N(C1CCCC1)CC(F)(F)C(=O)N2C [TAK-960]	> 10	> 10	> 10	> 10	> 10	> 10	> 10		> 10	
CC1(C)CCC(C)(C)c2cc(NC(=O)c3ccc(C(=O)O)cc3)ccc21 [TAMIBAROTENE]	> 10	> 10	> 10	> 10	> 10	> 10	> 10		> 10	
